How the values were obtained:
MT4 [1] = assay: Cytotoxicity against human MT4 cells assessed as reduction in cell viability after 5 days by MTT assay; assay type: functional; details: MT4, 120 h, time 5 day
[2] = test system: Human immunodeficiency virus 1; assay: Antiviral activity against wild type HIV-1; assay type: functional, organism-based
[3] = Selectivity index, ratio of CC50 for cytotoxicity against human MT4 cells to EC50 for antiviral activity against wild type HIV-1 IIIB infected in human MT4 cells; assay type: toxicity, cell-based; details: read-out: Selectivity Index
[4] = test system: Human immunodeficiency virus 1; assay: Antiviral activity against HIV1 harboring K103N/Y181C double mutant; assay type: functional, organism-based
[5] = test system: Human immunodeficiency virus 1; assay: Antiviral activity against HIV1 harboring F227L/V106A double mutant infected in MT4 cells; assay type: functional, organism-based; details: Human immunodeficiency virus 1, MT4
[6] = test system: Human immunodeficiency virus 1; assay: Antiviral activity against HIV1 harboring K103N mutant infected in MT4 cells; assay type: functional, organism-based; details: Human immunodeficiency virus 1, MT4
[7] = test system: Human immunodeficiency virus 1; assay: Antiviral activity against HIV-1 […] mutant; assay type: functional, organism-based
[8] = test system: Human immunodeficiency virus 1; assay: Antiviral activity against HIV1 harboring E138K mutant infected in MT4 cells; assay type: functional, organism-based; details: Human immunodeficiency virus 1, MT4
[9] = test system: Human immunodeficiency virus 1; assay: Antiviral activity against HIV1 harboring Y181C mutant infected in MT4 cells; assay type: functional, organism-based; details: Human immunodeficiency virus 1, MT4
[10] = test system: Human immunodeficiency virus 1; assay: Antiviral activity against HIV1 harboring Y188L mutant infected in MT4 cells; assay type: functional, organism-based; details: Human immunodeficiency virus 1, MT4
[11] = test system: Human immunodeficiency virus 1; assay: Antiviral activity against wild type HIV-1 3B; assay type: functional, organism-based; details: Human immunodeficiency virus 1, 3B
[12] = Oral bioavailability in human; assay type: ADME, organism-based; details: in vivo
[13] = molecular target: Human immunodeficiency virus type 1 reverse transcriptase (Human immunodeficiency virus 1, UniProt Q72547); assay: Inhibition of wild type HIV-1 Reverse transcriptase
[14] = test system: Human immunodeficiency virus 1; assay: Antiviral activity against HIV-1 3B harboring F227L/V106A double mutant infected in MT4 cells assessed as reduction in virus induced cytopathic effect incubated for 5 days by MTT method; assay type: functional, organism-based; details: Human immunodeficiency virus 1, 3B, MT4, 120 h
[15] = test system: Human immunodeficiency virus 1; assay: Antiviral activity against NNRTI-resistant HIV-1 harboring Y181C mutant assessed as inhibition of viral growth; assay type: functional, organism-based
[16] = test system: Human immunodeficiency virus 1; assay: Antiviral activity against wild type HIV-1 3B infected in human MT4 cells assessed as inhibition of virus-induced cytopathic effect measured for 5 days by MTT assay; assay type: functional, organism-based; details: Human immunodeficiency virus 1, 3B, MT4, 120 h
[17] = test system: Human immunodeficiency virus 1; assay: Antiviral activity against HIV1 harboring K103N mutant infected in MT4 cells assessed as inhibition of viral growth; assay type: functional, organism-based; details: Human immunodeficiency virus 1, MT4
[18] = test system: Human immunodeficiency virus 1; assay: Antiviral activity against HIV-1 Y188L mutant infected in human MT4 cells assessed as reduction in virus induced cytopathic effect incubated for 5 days by MTT method; assay type: functional, organism-based; details: Human immunodeficiency virus 1, MT4, 120 h
[19] = test system: Human immunodeficiency virus 1; assay: Antiviral activity against HIV-1 3B harboring E138K mutant infected in MT4 cells assessed as reduction in virus induced cytopathic effect incubated for 5 days by MTT assay; assay type: functional, organism-based; details: Human immunodeficiency virus 1, 3B, MT4, 120 h
[20] = test system: Human immunodeficiency virus 1; assay: Antiviral activity against HIV-1 3B harboring L100I mutant infected in MT4 cells assessed as reduction in virus induced cytopathic effect incubated for 5 days by MTT method; assay type: functional, organism-based; details: Human immunodeficiency virus 1, 3B, MT4, 120 h
[21] = Aqueous solubility of compound at pH 7.4 incubated for 24 hrs by LC-MS/MS analysis; assay type: physicochemical; details: buffer
[22] = Lipophilicity, logP of compound; assay type: physicochemical; details: octanol/water
[23] = Metabolic stability in human liver microsomes assessed as intrinsic clearance measured for 60 mins by LC-MS/MS analysis; assay type: ADME, Microsome; details: read-out: CLH
[24] = Metabolic stability in human liver microsomes assessed as half life measured upto 120 mins by LC-MS/MS analysis; assay type: ADME, Microsome
MOLT-4 = assay: Cytotoxicity against human MOLT-4 cells assessed as reduction in cell viability by MTT assay; assay type: functional
MT4 [25] = assay: Cytotoxicity against human MT4 cells assessed as reduction in cell viability; assay type: functional
[26] = test system: Human immunodeficiency virus 1; assay: Antiviral activity against HIV-1 3B infected in human MT4 cells assessed as inhibition of viral replication incubated for 5 days by MTT assay; assay type: functional, organism-based; details: Human immunodeficiency virus 1, 3B, MT4, 120 h
MT2 = assay: Cytotoxicity against human MT2 cells; assay type: functional

N#Cc1ccc(Nc2nccc(Oc3ccc4cc(C#N)ccc4c3Br)n2)cc1
CC50 (MT4 [1]): 283000 nM
EC50 [2]: 2 nM
selectivity ratio [3]: 181000
EC50 [4]: 240 nM

COc1cc2cc(C#N)ccc2c(OC)c1Oc1ccnc(Nc2ccc(C#N)cc2)n1
CC50 (MT4 [1]): > 118000 nM
EC50 [2]: 5 nM
selectivity ratio [3]: > 25000
EC50 [4]: 160 nM

Cc1cc(C#N)cc(C)c1Oc1ccnc(S(=O)(=O)CC(=O)Nc2ccc(C#N)cc2)n1
CC50 (MT4 [1]): > 6010 nM
EC50 [2]: 2 nM
selectivity ratio [3]: > 3540

Cc1cc(-c2ccc(C#N)cc2)cc(C)c1Nc1ccnc(Nc2ccc(C#N)cc2)n1
CC50 (MT4 [1]): 2080 nM
selectivity ratio [3]: 2060

N#Cc1ccc(Nc2nccc(Oc3ccc4ccccc4c3Br)n2)cc1
CC50 (MT4 [1]): 154000 nM
EC50 [2]: 2.4 nM
selectivity ratio [3]: 65600
EC50 [4]: 6750 nM

Cc1cc(C(C#N)c2ccccc2F)nc(Nc2ccc(C#N)cc2)n1 (stereo not given)
EC50 [2]: 1.8 nM

Cc1cc(C#Cc2cccnc2)cc(C)c1Oc1ccnc(Nc2ccc(C#N)cc2)n1
CC50 (MT4 [1]): 3480 nM
EC50 [2]: 3 nM
EC50 [4]: 935 nM
EC50 [5]: 209 nM
EC50 [6]: 10 nM
EC50 [7]: 76 nM

N#Cc1ccc(Nc2nccc(/C(=N/O)c3ccc(-c4ccc(F)cc4)cc3F)n2)cc1
EC50 [8]: 170 nM
CC50 (MT4 [1]): > 292000 nM
EC50 [2]: 12 nM
EC50 [9]: 182 nM
EC50 [10]: 3430 nM
EC50 [4]: 22700 nM
EC50 [5]: 4600 nM
EC50 [6]: 500 nM
EC50 [7]: 400 nM

Cc1cc(/C=C/C#N)cc([N+](=O)[O-])c1Nc1nc(Nc2ccc(C#N)cc2)nc2ccccc12
EC50 [11]: 3.4 nM
bioavailability [12]: 16.5%

Cc1cc(/C=C/C#N)cc([N+](=O)[O-])c1Nc1nc(Nc2ccc(C#N)cc2)nc2ccc(Cl)cc12
EC50 [11]: 10.6 nM
bioavailability [12]: 16%

N#Cc1ccc(Nc2ncc(C(N)=O)c(Oc3ccc4cc(C#N)ccc4c3)n2)cc1
EC50 [8]: 11 nM
CC50 (MT4 [1]): > 307000 nM
EC50 [2]: 3.7 nM
selectivity ratio [3]: 84700

Cc1cc(-c2ccc(C#N)cc2)cc(C)c1Oc1ccnc(S(=O)(=O)CC(=O)Nc2ccc(C#N)cc2)n1
EC50 [8]: 26 nM
CC50 (MT4 [1]): 24400 nM
EC50 [2]: 6 nM
EC50 [9]: 26 nM
EC50 [10]: 122 nM
selectivity ratio [3]: 4070
EC50 [4]: 226 nM
EC50 [5]: 642 nM
EC50 [6]: 6 nM
IC50 [13]: 142 nM
EC50 [7]: 8 nM

COc1ccc(-c2cc(C)c(Oc3nc(NC4CCN(Cc5ccc(C(N)=O)cc5)CC4)nc4ccsc34)c(C)c2)cc1
EC50 [14]: 297 nM
EC50 [15]: 158 nM
EC50 [16]: 52.6 nM
EC50 [17]: 58.4 nM
EC50 [18]: 110 nM
EC50 [19]: 149 nM
EC50 [4]: 1120 nM
EC50 [20]: 268 nM

Cc1cc(-c2ccc(N(C)C)cc2)cc(C)c1Oc1nc(NC2CCN(Cc3ccc(C(N)=O)cc3)CC2)nc2ccsc12
EC50 [14]: 1250 nM
EC50 [15]: 585 nM
EC50 [16]: 176 nM
EC50 [17]: 173 nM
EC50 [18]: 556 nM
EC50 [19]: 245 nM
EC50 [4]: > 23500 nM
EC50 [20]: 1120 nM

N#Cc1ccc(Nc2nc(N)cc(Oc3c(F)cc(-c4ccc(C#N)cc4)cc3F)n2)cc1
EC50 [8]: 8 nM
EC50 [2]: 1.8 nM
EC50 [9]: 32 nM
EC50 [10]: 1050 nM
EC50 [4]: 10 nM
EC50 [6]: 2 nM
EC50 [7]: 16 nM
solubility at 24 h [21]: < 1 µg/mL

N#Cc1ccc(Nc2nccc(Oc3ccc4ccccc4c3)n2)cc1
logP [22]: 5.36

Cc1cc(/C=C/C#N)cc(C)c1Oc1nc(NC2CCN(Cc3ccc(B(O)O)cc3)CC2)nc2c1COC2
EC50 [8]: 17.3 nM
CC50 (MT4 [1]): 25600 nM
EC50 [2]: 7.23 nM
EC50 [9]: 19.7 nM
EC50 [10]: 39.9 nM
EC50 [4]: 77.9 nM
EC50 [5]: 43.2 nM
EC50 [6]: 7.19 nM
EC50 [7]: 9.85 nM

Cc1cc(-c2ccc(F)cc2)cc(C)c1Oc1nc(NC2CCN(Cc3ccc(C(N)=O)cc3)CC2)nc2ccsc12
EC50 [14]: 56.6 nM
EC50 [15]: 36.1 nM
EC50 [16]: 12.8 nM
EC50 [17]: 11.7 nM
EC50 [18]: 51.4 nM
EC50 [19]: 34.8 nM
EC50 [4]: 575 nM
EC50 [20]: 61.1 nM

N#Cc1ccc(Nc2ncc(CO)c(Nc3c(F)cc(-c4ccc(C#N)cc4)cc3F)n2)cc1
EC50 [8]: 3.5 nM
CLint scaled [23]: 0.763 mL/min/kg
half-life [24]: 45.9 h
EC50 [2]: 0.9 nM
EC50 [9]: 8.2 nM
EC50 [10]: 162 nM
EC50 [7]: 1.9 nM
CC50 (MOLT-4): 225000 nM

Cc1cc(-c2ccsc2)cc(C)c1Oc1nc(NC2CCN(Cc3ccc(C(N)=O)cc3)CC2)nc2ccsc12
EC50 [14]: 854 nM
EC50 [15]: 741 nM
EC50 [16]: 240 nM
EC50 [17]: 171 nM
EC50 [18]: 628 nM
EC50 [19]: 739 nM
EC50 [4]: 4520 nM
EC50 [20]: 925 nM

Cc1cc(-c2ccoc2)cc(C)c1Oc1nc(NC2CCN(Cc3ccc(C(N)=O)cc3)CC2)nc2ccsc12
EC50 [14]: 525 nM
EC50 [15]: 180 nM
EC50 [16]: 57.5 nM
EC50 [17]: 74.8 nM
EC50 [18]: 222 nM
EC50 [19]: 177 nM
EC50 [4]: 813 nM
EC50 [20]: 262 nM

Cc1cc(-c2ccc(C#N)cc2)cc(C)c1Oc1nc(NC2CCN(Cc3ccc(C(N)=O)cc3)CC2)nc2ccsc12
EC50 [14]: 97.2 nM
EC50 [15]: 18.9 nM
EC50 [16]: 9.93 nM
EC50 [17]: 6.02 nM
EC50 [18]: 23.9 nM
EC50 [19]: 23.2 nM
EC50 [4]: 125 nM
EC50 [20]: 10.5 nM

N#Cc1ccc(Nc2nccc(C(C#N)c3ccc(-c4ccc(C#N)cc4)c(F)c3)n2)cc1 (stereo not given)
EC50 [8]: 170 nM
EC50 [9]: 870 nM
EC50 [10]: 9810 nM
CC50 (MT4 [25]): 36400 nM
EC50 [4]: > 36500 nM
EC50 [5]: > 25600 nM
EC50 [6]: 900 nM
EC50 [26]: 20 nM
EC50 [7]: 1210 nM

Cc1cc(C#CC2CCN(Cc3ccncc3)CC2)cc(C)c1Oc1ccnc(Nc2ccc(C#N)cc2)n1
EC50 [8]: 190 nM
CC50 (MT2): 192000 nM
EC50 [2]: 19 nM
selectivity ratio [3]: 101
EC50 [6]: 50 nM

COC(=O)n1ncc(-c2cc(C)c(Oc3ccnc(Nc4ccc(C#N)cc4)n3)c(C)c2)n1
EC50 [8]: 160 nM
CC50 (MT2): > 242000 nM
EC50 [2]: 13 nM
EC50 [6]: 22 nM

N#Cc1ccc(Nc2nccc(Oc3ccc4cccnc4c3Br)n2)cc1
CC50 (MT2): > 299000 nM
IC50 [13]: 11 nM

Cc1cc(-c2ccc(C#N)cc2)cc(C)c1Oc1nc(NC2CCN(Cc3ccc(S(N)(=O)=O)cc3)CC2)nc2ccsc12
EC50 [14]: 59.9 nM
EC50 [15]: 30.8 nM
EC50 [16]: 17 nM
EC50 [17]: 13.2 nM
EC50 [18]: 53.6 nM
EC50 [19]: 44.4 nM
EC50 [4]: 103 nM
EC50 [20]: 27.4 nM

Cc1cc(/C=C/C#N)cc(C)c1Nc1ccnc(Nc2ccc(C#N)cc2)n1 [RILPIVIRINE]
CC50 (MT4 [1]): > 3980 nM

Source: ChEMBL document CHEMBL6078635, “Advances in diarylpyrimidines and related analogues as HIV-1 nonnucleoside reverse transcriptase inhibitors (2019-2023)” (Eur J Med Chem, 2024)
